Numbers after ± are expanded uncertainties.
Experiment: mn = molality of the nth substance listed, in mol/kg
Conditions: 101 kPa, Liquid

[O-][Cl+3]([O-])([O-])[O-].[O-][Cl+3]([O-])([O-])[O-].[Zn+2] [zinc perchlorate] + C[S+](C)[O-]
mass density (293.15 K, m1 = 0.0168): 1103.88 ± 0.57 kg/m3 | mass density (293.15 K, m1 = 0.02409): 1105.47 ± 0.58 kg/m3 | mass density (293.15 K, m1 = 0.02918): 1106.59 ± 0.58 kg/m3 | mass density (293.15 K, m1 = 0.03465): 1107.79 ± 0.58 kg/m3 | mass density (293.15 K, m1 = 0.05104): 1111.38 ± 0.59 kg/m3 | mass density (293.15 K, m1 = 0.06794): 1115.12 ± 0.6 kg/m3 | mass density (293.15 K, m1 = 0.08574): 1119.08 ± 0.61 kg/m3 | mass density (293.15 K, m1 = 0.1022): 1122.78 ± 0.62 kg/m3 | mass density (293.15 K, m1 = 0.119): 1126.55 ± 0.63 kg/m3 | mass density (293.15 K, m1 = 0.1435): 1132.09 ± 0.64 kg/m3 | mass density (293.15 K, m1 = 0.1684): 1137.8 ± 0.66 kg/m3 | mass density (298.15 K, m1 = 0.0168): 1098.86 ± 0.56 kg/m3 | mass density (298.15 K, m1 = 0.02409): 1100.46 ± 0.57 kg/m3 | mass density (298.15 K, m1 = 0.02918): 1101.58 ± 0.57 kg/m3 | mass density (298.15 K, m1 = 0.03465): 1102.78 ± 0.57 kg/m3 | mass density (298.15 K, m1 = 0.05104): 1106.39 ± 0.58 kg/m3 | mass density (298.15 K, m1 = 0.06794): 1110.13 ± 0.59 kg/m3 | mass density (298.15 K, m1 = 0.08574): 1114.1 ± 0.6 kg/m3 | mass density (298.15 K, m1 = 0.1022): 1117.8 ± 0.61 kg/m3 | mass density (298.15 K, m1 = 0.119): 1121.58 ± 0.62 kg/m3 | mass density (298.15 K, m1 = 0.1435): 1127.14 ± 0.64 kg/m3 | mass density (298.15 K, m1 = 0.1684): 1132.85 ± 0.65 kg/m3 | mass density (303.15 K, m1 = 0.0168): 1093.85 ± 0.55 kg/m3 | mass density (303.15 K, m1 = 0.02409): 1095.45 ± 0.56 kg/m3 | mass density (303.15 K, m1 = 0.02918): 1096.56 ± 0.56 kg/m3 | mass density (303.15 K, m1 = 0.03465): 1097.78 ± 0.56 kg/m3 | mass density (303.15 K, m1 = 0.05104): 1101.39 ± 0.57 kg/m3 | mass density (303.15 K, m1 = 0.06794): 1105.14 ± 0.58 kg/m3 | mass density (303.15 K, m1 = 0.08574): 1109.12 ± 0.59 kg/m3 | mass density (303.15 K, m1 = 0.1022): 1112.83 ± 0.6 kg/m3 | mass density (303.15 K, m1 = 0.119): 1116.62 ± 0.61 kg/m3 | mass density (303.15 K, m1 = 0.1435): 1122.19 ± 0.63 kg/m3 | mass density (303.15 K, m1 = 0.1684): 1127.91 ± 0.64 kg/m3 | mass density (313.15 K, m1 = 0.0168): 1083.82 ± 0.54 kg/m3 | mass density (313.15 K, m1 = 0.02409): 1085.43 ± 0.54 kg/m3 | mass density (313.15 K, m1 = 0.02918): 1086.56 ± 0.54 kg/m3 | mass density (313.15 K, m1 = 0.03465): 1087.77 ± 0.55 kg/m3 | mass density (313.15 K, m1 = 0.05104): 1091.4 ± 0.56 kg/m3 | mass density (313.15 K, m1 = 0.06794): 1095.18 ± 0.56 kg/m3 | mass density (313.15 K, m1 = 0.08574): 1099.17 ± 0.57 kg/m3 | mass density (313.15 K, m1 = 0.1022): 1102.91 ± 0.58 kg/m3 | mass density (313.15 K, m1 = 0.119): 1106.7 ± 0.59 kg/m3 | mass density (313.15 K, m1 = 0.1435): 1112.3 ± 0.61 kg/m3 | mass density (313.15 K, m1 = 0.1684): 1118.05 ± 0.62 kg/m3 | mass density (323.15 K, m1 = 0.0168): 1073.81 ± 0.52 kg/m3 | mass density (323.15 K, m1 = 0.02409): 1075.43 ± 0.52 kg/m3 | mass density (323.15 K, m1 = 0.02918): 1076.56 ± 0.53 kg/m3 | mass density (323.15 K, m1 = 0.03465): 1077.77 ± 0.53 kg/m3 | mass density (323.15 K, m1 = 0.05104): 1081.43 ± 0.54 kg/m3 | mass density (323.15 K, m1 = 0.06794): 1085.22 ± 0.55 kg/m3 | mass density (323.15 K, m1 = 0.08574): 1089.23 ± 0.56 kg/m3 | mass density (323.15 K, m1 = 0.1022): 1092.99 ± 0.57 kg/m3 | mass density (323.15 K, m1 = 0.119): 1096.8 ± 0.57 kg/m3 | mass density (323.15 K, m1 = 0.1435): 1102.43 ± 0.59 kg/m3 | mass density (323.15 K, m1 = 0.1684): 1108.21 ± 0.6 kg/m3 | mass density (333.15 K, m1 = 0.0168): 1063.78 ± 0.5 kg/m3 | mass density (333.15 K, m1 = 0.02409): 1065.41 ± 0.51 kg/m3 | mass density (333.15 K, m1 = 0.02918): 1066.55 ± 0.51 kg/m3 | mass density (333.15 K, m1 = 0.03465): 1067.77 ± 0.51 kg/m3 | mass density (333.15 K, m1 = 0.05104): 1071.45 ± 0.52 kg/m3 | mass density (333.15 K, m1 = 0.06794): 1075.26 ± 0.53 kg/m3 | mass density (333.15 K, m1 = 0.08574): 1079.3 ± 0.54 kg/m3 | mass density (333.15 K, m1 = 0.1022): 1083.08 ± 0.55 kg/m3 | mass density (333.15 K, m1 = 0.119): 1086.9 ± 0.56 kg/m3 | mass density (333.15 K, m1 = 0.1435): 1092.57 ± 0.57 kg/m3 | mass density (333.15 K, m1 = 0.1684): 1098.37 ± 0.59 kg/m3

— the NIST ThermoML archive (doi:10.1021/je900732r)
